Test results reported in ChEMBL document CHEMBL1201862, “PubChem BioAssay data set” (2004).
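All cell lines were grown in 96-well plates and treated with compound for 48 hours. GI50 = concentration required for 50% inhibition of growth.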 Calls of active or inactive are those of the source. Rule as the data show it: active = GI50 up to about 1.1 µM and inactive = higher.

What was measured:
Test in all cases: NCI-60 cell line screen, 48 h
BT-549 = tested on: BT-549
COLO 205 = tested on: COLO 205
HCT-116 = tested on: HCT-116
HL-60 = tested on: HL-60
IGROV-1 = tested on: IGROV-1
MDA-MB-231 = tested on: MDA-MB-231
MDA-MB-435 = tested on: MDA-MB-435
NCI-H23 = tested on: NCI-H23
NCI-H460 = tested on: NCI-H460
NCI/ADR-RES = tested on: NCI/ADR-RES
OVCAR-3 = tested on: OVCAR-3
OVCAR-4 = tested on: OVCAR-4
OVCAR-8 = tested on: OVCAR-8
RPMI-8226 = tested on: RPMI-8226
SK-MEL-28 = tested on: SK-MEL-28
SNB-19 = tested on: SNB-19
SW-620 = tested on: SW-620
TK-10 = tested on: TK-10
UACC-257 = tested on: UACC-257
MOLT-4 = tested on: MOLT-4

Row | Structure (SMILES) | GI50 (BT-549) | GI50 (COLO 205) | GI50 (HCT-116) | GI50 (HL-60) | GI50 (IGROV-1) | GI50 (MDA-MB-231) | GI50 (MDA-MB-435) | GI50 (NCI-H23) | GI50 (NCI-H460) | GI50 (NCI/ADR-RES) | GI50 (OVCAR-3) | GI50 (OVCAR-4) | GI50 (OVCAR-8) | GI50 (RPMI-8226) | GI50 (SK-MEL-28) | GI50 (SNB-19) | GI50 (SW-620) | GI50 (TK-10) | GI50 (UACC-257) | GI50 (MOLT-4)
1 | CN(C)CCn1c(CO)nc2c1c(=O)n(C)c(=O)n2C | > 100 µM (inactive) | > 100 µM (inactive) | > 100 µM (inactive) | > 100 µM (inactive) | > 100 µM (inactive) | > 100 µM (inactive) | > 100 µM (inactive) | > 100 µM (inactive) | > 100 µM (inactive) | > 100 µM (inactive) | > 100 µM (inactive) | > 100 µM (inactive) | > 100 µM (inactive) | > 100 µM (inactive) | > 100 µM (inactive) | > 100 µM (inactive) | > 100 µM (inactive) | > 100 µM (inactive) | > 100 µM (inactive) | –
2 | C=C1C2CCC3(CCC4C5(C)CCCC4(C=[N+](CCO)C5)C3C2)C1O (configuration not stated) | > 100 µM (inactive) | > 100 µM (inactive) | > 100 µM (inactive) | > 100 µM (inactive) | > 100 µM (inactive) | > 100 µM (inactive) | > 100 µM (inactive) | > 100 µM (inactive) | > 100 µM (inactive) | > 100 µM (inactive) | > 100 µM (inactive) | > 100 µM (inactive) | > 100 µM (inactive) | > 100 µM (inactive) | > 100 µM (inactive) | > 100 µM (inactive) | > 100 µM (inactive) | > 100 µM (inactive) | > 100 µM (inactive) | –
3 | O=C(c1ccccc1)c1ccc(N2C(=O)/C(=C/Cc3ccco3)N=C2c2ccccc2)c(N2C(=O)/C(=C/Cc3ccco3)N=C2c2ccccc2)c1 | 35.6 µM (inactive) | 38.6 µM (inactive) | 40.2 µM (inactive) | 15.3 µM (inactive) | 39.2 µM (inactive) | 37.9 µM (inactive) | 29.2 µM (inactive) | – | 36.6 µM (inactive) | 33.8 µM (inactive) | 21.6 µM (inactive) | 39.9 µM (inactive) | 29.3 µM (inactive) | 27.8 µM (inactive) | > 100 µM (inactive) | 47.4 µM (inactive) | 39.8 µM (inactive) | 55.8 µM (inactive) | 47.1 µM (inactive) | 18.8 µM (inactive)
4 | NS(=O)(=O)c1ccc(-c2ccc([As](=O)(O)O)cc2)cc1 | > 100 µM (inactive) | > 100 µM (inactive) | > 100 µM (inactive) | > 100 µM (inactive) | > 100 µM (inactive) | > 100 µM (inactive) | > 100 µM (inactive) | > 100 µM (inactive) | > 100 µM (inactive) | > 100 µM (inactive) | > 100 µM (inactive) | > 100 µM (inactive) | > 100 µM (inactive) | > 100 µM (inactive) | > 100 µM (inactive) | > 100 µM (inactive) | > 100 µM (inactive) | > 100 µM (inactive) | 32.6 µM (inactive) | > 100 µM (inactive)
5 | COc1cc([C@@H]2c3cc4c(cc3[C@H](OC3OC5COC(C(C)C)OC5C(O)C3O)C3COC(=O)[C@@H]32)OCO4)cc(OC)c1O (some centres not stated) | 3.42 µM (inactive) | 6.82 µM (inactive) | 3.85 µM (inactive) | 1.99 µM (inactive) | 5.21 µM (inactive) | 14.1 µM (inactive) | 4.58 µM (inactive) | 4.03 µM (inactive) | 2.04 µM (inactive) | 9.38 µM (inactive) | 11.8 µM (inactive) | 15.1 µM (inactive) | 9.31 µM (inactive) | 5.2 µM (inactive) | – | 14.6 µM (inactive) | 6.53 µM (inactive) | 23.5 µM (inactive) | 8.87 µM (inactive) | 3.17 µM (inactive)
6 | N=C1OC(CN2CCN(c3ccccc3)CC2)CN1C(=O)Nc1ccccc1 (configuration not stated) | > 100 µM (inactive) | > 100 µM (inactive) | > 100 µM (inactive) | 53.5 µM (inactive) | > 100 µM (inactive) | > 100 µM (inactive) | > 100 µM (inactive) | > 100 µM (inactive) | > 100 µM (inactive) | > 100 µM (inactive) | – | > 100 µM (inactive) | > 100 µM (inactive) | > 100 µM (inactive) | > 100 µM (inactive) | > 100 µM (inactive) | > 100 µM (inactive) | > 100 µM (inactive) | > 100 µM (inactive) | > 100 µM (inactive)
7 | CCOC(=O)C(NCc1cccc(C(F)(F)F)c1)(NC(=O)CC)C(F)(F)F (configuration not stated) | > 100 µM (inactive) | > 100 µM (inactive) | > 100 µM (inactive) | 58.5 µM (inactive) | 18 µM (inactive) | 31.8 µM (inactive) | > 100 µM (inactive) | > 100 µM (inactive) | – | > 100 µM (inactive) | > 100 µM (inactive) | > 100 µM (inactive) | > 100 µM (inactive) | 26 µM (inactive) | > 100 µM (inactive) | > 100 µM (inactive) | > 100 µM (inactive) | > 100 µM (inactive) | > 100 µM (inactive) | 82.6 µM (inactive)
8 | Cc1ccc(S(=O)(=O)N(CCN2C(=O)c3ccccc3C2=O)c2cc3c4c(c2)Oc2cc(N(CCN5C(=O)c6ccccc6C5=O)S(=O)(=O)c5ccc(C)cc5)cc5c2C4(C)c2c(cc(N(CCN4C(=O)c6ccccc6C4=O)S(=O)(=O)c4ccc(C)cc4)cc2O5)O3)cc1 | > 100 µM (inactive) | > 100 µM (inactive) | > 100 µM (inactive) | > 100 µM (inactive) | 57.3 µM (inactive) | 4.89 µM (inactive) | > 100 µM (inactive) | – | > 100 µM (inactive) | > 100 µM (inactive) | > 100 µM (inactive) | > 100 µM (inactive) | > 100 µM (inactive) | > 100 µM (inactive) | > 100 µM (inactive) | > 100 µM (inactive) | > 100 µM (inactive) | > 100 µM (inactive) | > 100 µM (inactive) | > 100 µM (inactive)
9 | COC(=O)c1c(C)c2c(c(C)c1C(=O)OC)-c1c(C)ccc3ccc(C)c-2c13 | > 100 µM (inactive) | 34.4 µM (inactive) | 50.1 µM (inactive) | 5.08 µM (inactive) | 54 µM (inactive) | 3.94 µM (inactive) | > 83 µM (inactive) | – | 18.6 µM (inactive) | 26.7 µM (inactive) | > 85.9 µM (inactive) | > 68.5 µM (inactive) | 47.1 µM (inactive) | 7.28 µM (inactive) | 68.2 µM (inactive) | > 87.5 µM (inactive) | 32.9 µM (inactive) | > 65.8 µM (inactive) | > 54.5 µM (inactive) | 14.4 µM (inactive)
10 | O=C(c1ccc2ccccc2c1)C1(I)S(=O)(=O)OCCOS1(=O)=O | > 100 µM (inactive) | > 100 µM (inactive) | > 100 µM (inactive) | > 100 µM (inactive) | – | > 100 µM (inactive) | > 100 µM (inactive) | > 100 µM (inactive) | > 100 µM (inactive) | > 100 µM (inactive) | > 100 µM (inactive) | > 100 µM (inactive) | > 100 µM (inactive) | > 100 µM (inactive) | > 100 µM (inactive) | > 100 µM (inactive) | – | > 100 µM (inactive) | – | > 100 µM (inactive)
11 | COC(=O)c1c2c(cc3c1CC1(C3)Cc3ccc4c(c3C1=O)CCC4)CCC2 (configuration not stated) | 2.52 µM (inactive) | 2.37 µM (inactive) | 3.01 µM (inactive) | 2.52 µM (inactive) | 4.99 µM (inactive) | 2.01 µM (inactive) | 0.6 µM (active) | 3.74 µM (inactive) | 4.84 µM (inactive) | 1.92 µM (inactive) | 1.94 µM (inactive) | 10.2 µM (inactive) | 4.61 µM (inactive) | 3.23 µM (inactive) | 6.67 µM (inactive) | 4.12 µM (inactive) | 4.07 µM (inactive) | 8.49 µM (inactive) | 5.04 µM (inactive) | 4.41 µM (inactive)
12 | O=C(c1ccc2ccccc2c1)N(Cc1cccnc1)C(=S)N(Cc1cccnc1)C(=O)c1ccc2ccccc2c1 | 17 µM (inactive) | 29.2 µM (inactive) | 35.7 µM (inactive) | 40.8 µM (inactive) | – | 23.2 µM (inactive) | 34 µM (inactive) | 23.1 µM (inactive) | 30.6 µM (inactive) | 30 µM (inactive) | 20.5 µM (inactive) | 20.7 µM (inactive) | 25.7 µM (inactive) | 32.9 µM (inactive) | 36.9 µM (inactive) | 37.2 µM (inactive) | 49.5 µM (inactive) | 31.1 µM (inactive) | 19.5 µM (inactive) | 41.3 µM (inactive)
13 | O=C(/C=C/c1ccc(O)cc1)NCCc1ccc(O)cc1 [N-P-COUMAROYL TYRAMINE] | 7.53 µM (inactive) | > 12.5 µM (inactive) | > 12.5 µM (inactive) | 3.58 µM (inactive) | 8.3 µM (inactive) | > 12.5 µM (inactive) | > 12.5 µM (inactive) | 7.16 µM (inactive) | 11.2 µM (inactive) | 3.62 µM (inactive) | 8.93 µM (inactive) | 8.63 µM (inactive) | > 12.5 µM (inactive) | 6.95 µM (inactive) | > 12.5 µM (inactive) | > 12.5 µM (inactive) | > 12.5 µM (inactive) | 3.72 µM (inactive) | > 12.5 µM (inactive) | –
